Here are results for one substance from US20080292619A1, “Pharmaceutical Composition Containing Meltrin Antagonist” (MOCHIDA PHARMACEUTICAL CO., LTD., priority 2004, published 2008).

In the oligonucleotide strings, read from the 5' end, every base follows the letter of its sugar. An asterisk marks phosphorothioate; unmarked linkages are phosphodiester. Other units and linkages are bracketed, terminal groups are in braces. A string of capitals states the bases alone. d = 2'-deoxy (DNA)

In the data set the test system is human meltrin α RNA. Kind of data set: Suppression of human meltrin α expression by antisense compound in RD cell (real time PCR). In kind it is cell-based. Conditions: 50 nM; RD cell. Summed up:
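RD cells transfected with heat-denatured antisense oligodeoxynucleotide plus Lipofectin in Opti-MEM for 4 h at 37° C, then cultured 18 h. Meltrin α RNA quantified by TaqMan RT-PCR against plasmid standard curve, GAPDH-corrected; suppression vs untreated cells, rated +/++/+++ for ≥30/50/70%.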

Turning to “2 (dC*dT*dG*dG*dT*dT*dA*dA*dT*dG*dG*dT*dT*dC*dA*dC*dA*dT*dC*dT) [compound 2]”, the “Supression of expression, 50 nM” value is “++ (“++” when the suppression rate was at least 50%)”.
